The term half-life denotes the time in which the quantity being followed falls by half. The AUC(0-t) is the area under the concentration-time curve up to a stated or last time point. A word on the clearance: it is the rate of elimination divided by the concentration. What is called Cmax is the maximum level reached in the sampled fluid or tissue. As usually defined, the bioavailability is the share of a dose that reaches the circulation, judged against a reference dose that is usually intravenous.

One series has as its system BMDM. Put plainly: Cytotoxicity against C57/BL6 mouse bone marrow macrophage cells assessed as reduction in cell viability at 10 uM incubated for 3 days by CCK8 assay. It is filed as toxicity, cell-based. As to conditions: 72 h, time 3 day. In general terms: Tetrazolium assays rely on reduction of a dye to a coloured formazan, in cell work by metabolically active cells.

A short description of series [1]: Anti-osteoporosis activity C57/BL6 mouse bone marrow macrophage cells assessed as inhibition of RANKL-induced osteoclastogenesis at 1 uM measured after 5 to 6 days in presence of M-CSF and RNKL by TRAP staining microscopic analysis. The class given is functional, BMDM. More on the design: scale not given: the % may be the effect or the level left. As to conditions: time 5-6 day.

Series [2] can be described thus: Anti-osteoporosis activity C57/BL6 mouse bone marrow macrophage cells assessed as inhibition of RANKL-induced osteoclastogenesis at 0.1 uM measured after 5 to 6 days in presence of M-CSF and RNKL by TRAP staining microscopic analysis. It is filed as functional, BMDM. More on the design: scale not given: the % may be the effect or the level left. To be noted: time 5-6 day.

The nature of series [3]: Half life in OVX-induced C57/BL6 mouse model at 3 mg/kg, iv. It is filed as ADME, organism-based. As to conditions: female, in vivo.
Series [4] is described as follows: Half life in OVX-induced C57/BL6 mouse model at 5 mg/kg, po. It is filed as ADME, organism-based. As to conditions: female, in vivo.
Series [5] can be described thus: AUC(0 to t) in OVX-induced C57/BL6 mouse model at 5 mg/kg, po. It is filed as ADME, organism-based. More on the design: dose 5 mg/kg, route po. As to conditions: female, in vivo.
The nature of series [6]: Clearance in OVX-induced C57/BL6 mouse model at 3 mg/kg, iv. It is filed as ADME, organism-based. As to conditions: female, in vivo.
The nature of series [7]: AUC(0 to t) in OVX-induced C57/BL6 mouse model at 3 mg/kg, iv. It is filed as ADME, organism-based. Details: dose 3 mg/kg, route iv. As to conditions: female, in vivo.
The nature of series [8]: Cmax in OVX-induced C57/BL6 mouse model at 5 mg/kg, po. It is filed as ADME, organism-based. More on the design: dose 5 mg/kg, route po. As to conditions: female, in vivo.
Series [9] in a line: Oral bioavailability in OVX-induced C57/BL6 mouse model. It is filed as ADME, organism-based. To be noted: female, in vivo.

Turning to `O=C(Nc1cc[nH]n1)c1cc2c([nH]c3ccccc32)c(CCc2ccccc2)n1`, the Cell viability in the series on BMDM is on record as greater than 100%. In addition, the Activity in series [1] came out at 39.9%.
As for `COC(=O)c1ccc(CCc2nc(C(=O)Nc3c(C)cccc3C)cc3c2[nH]c2ccccc23)cc1`, the Activity worked out at 28.5% in series [2] and 77.6% in series [1]. The Cell viability with BMDM is recorded as 99.6%.
As for `Cc1cccc(C)c1NC(=O)c1cc2c([nH]c3ccccc32)c(CCc2ccc(O)cc2)n1`, in the series on BMDM, the Cell viability was 76.9%. Also, the Activity in [1] came out at 23.8%.
For `O=C(Nc1nccs1)c1cc2c([nH]c3ccccc32)c(CCc2ccccc2)n1`, the Cell viability in the series with BMDM is given as greater than 100%. The Activity in series [1] is recorded as 27%.
With `COc1ccccc1CCc1nc(C(=O)Nc2c(C)cccc2C)cc2c1[nH]c1ccccc12`, the Activity in series [2] is on record as 33.6%; in [1], 83%. Further, the Cell viability in the series on BMDM is reported as greater than 100%.
Turning to `Cc1cccc(C)c1NC(=O)c1cc2c([nH]c3ccccc32)c(CCc2ccc(F)cc2)n1`, the values for the Activity in series [2] and in [1] were 28.2% and 65.2%, respectively. For the same compound, the Cell viability in the series on BMDM was greater than 100%.
With `O=C(c1cc2c([nH]c3ccccc32)c(CCc2ccccc2)n1)N1CCOCC1`, the Cell viability in the series with BMDM was greater than 100%. In addition, the Activity in [1] amounted to 32.6%.
For `CNc1ccc(CCc2nc(C(=O)Nc3c(C)cccc3C)cc3c2[nH]c2ccccc23)cc1`, in the series with BMDM, the Cell viability is reported as greater than 100%. Further, the Activity in series [1] came to 37.9%.
On to `Cc1cccc(C)c1NC(=O)c1cc2c([nH]c3ccccc32)c(CCc2cccc(F)c2)n1`, for which the Activity in series [2] came to 21%; in [1] it was 54.7%. Besides, the Cell viability in the series on BMDM is reported as greater than 100%.
For the compound `COc1cccc(CCc2nc(C(=O)Nc3c(C)cccc3C)cc3c2[nH]c2ccccc23)c1`, the results for the Activity in [2] and in series [1] were 27.1% and 82.3%, respectively. Also, in the series with BMDM, the Cell viability is greater than 100%.
As for `CC(=O)Nc1ccc(CCc2nc(C(=O)Nc3c(C)cccc3C)cc3c2[nH]c2ccccc23)cc1`, the Activity in [2] is given as 19%; in series [1], 55%. The Cell viability in the series with BMDM is recorded as greater than 100%.
With `Cc1cccc(C)c1NC(=O)c1cc2c([nH]c3ccccc32)c(CCc2ccc(N(C)C)cc2)n1`, the Activity is 36.7% in [2] and 54.7% in [1]. In addition, the Cell viability with BMDM is greater than 100%.
With `Cc1cccc(C)c1NC(=O)c1cc2c([nH]c3ccccc32)c(CCC2CCCCC2)n1`, the Activity is listed as 9.1% in series [2] and 52.8% in [1]. In the series with BMDM, the Cell viability was greater than 100%.
As for `Cc1cccc(C)c1NC(=O)c1cc2c([nH]c3ccccc32)c(CCc2cc(F)cc(F)c2)n1`, in the series with BMDM, the Cell viability is given as greater than 100%. For the same compound, the Activity in series [1] is 35.2%.
Consider `O=C(Nc1ccncc1)c1cc2c([nH]c3ccccc32)c(CCc2ccccc2)n1`, for which the Activity in series [2] was 18.4%; in series [1], 56.6%. The Cell viability with BMDM is greater than 100%.
`Cc1cccc(C)c1NC(=O)c1cc2c([nH]c3ccccc32)c(CCc2cccnc2)n1`: the Cell viability in the series with BMDM was found to be 51.2%.
Consider `O=C(NC1CCCCC1)c1cc2c([nH]c3ccccc32)c(CCc2ccccc2)n1`, for which the Cell viability with BMDM is given as greater than 100%. For the same compound, the Activity in series [1] was determined as 0%.
With `O=C(NC1CCOCC1)c1cc2c([nH]c3ccccc32)c(CCc2ccccc2)n1`, in the series with BMDM, the Cell viability is greater than 100%. Moreover, the Activity in series [1] turned out to be 47.9%.
For the compound `COc1ccc(CCc2nc(C(=O)Nc3c(C)cccc3C)cc3c2[nH]c2ccccc23)cc1`, the Activity in [2] came out at 29.3%; in [1], 75.7%. For the same compound, the Cell viability in the series on BMDM is greater than 100%.
Turning to `Cc1cc2occ(CN(C)CCN(C)Cc3cn(-c4cccc(C(F)(F)F)c4)c4ccccc34)c(=O)c2cc1C`, the Activity was found to be 18.4% in [2] and 56.1% in [1]. Moreover, in the series on BMDM, the Cell viability is on record as 3.8%.
On to `Cl.O=C(NC1CCNCC1)c1cc2c([nH]c3ccccc32)c(CCc2ccccc2)n1`, for which the Cell viability in the series on BMDM is recorded as 47.9%. Besides, the Activity in series [1] turned out to be 0%.
As to `O=C(Nc1ncc[nH]1)c1cc2c([nH]c3ccccc32)c(CCc2ccccc2)n1`, the Activity in [2] was 10.7%; in series [1], 78.9%. The Cell viability in the series on BMDM is reported as greater than 100%.
On to `Cc1cccc(C)c1NC(=O)c1cc2c([nH]c3ccccc32)c(CCc2ccc(P(C)(C)=O)cc2)n1`, for which the results for the Activity in series [2] and in [1] were 32.6% and 81.6%, respectively. The Cell viability in the series on BMDM is on record as greater than 100%.
As to `O=C(Nc1cccnc1)c1cc2c([nH]c3ccccc32)c(CCc2ccccc2)n1`, in the series with BMDM, the Cell viability was greater than 100%. The Activity in [1] came to 18.3%.
On to `Cc1cccc(C)c1NC(=O)c1cc2c([nH]c3ccccc32)c(CCc2ccc(C(F)(F)F)cc2)n1`, for which the Activity in series [2] was 19.5%; in series [1], 72.5%. Moreover, the Cell viability with BMDM was greater than 100%.
For the compound `Cn1cc(NC(=O)c2cc3c([nH]c4ccccc43)c(CCc3ccccc3)n2)cn1`, the Cell viability in the series with BMDM is recorded as greater than 100%. The Activity in series [1] is listed as 0%.
On to `Cc1cccc(C)c1NC(=O)c1cc2c([nH]c3ccccc32)c(CCc2ccc(N)cc2)n1`, for which the Activity in series [2] was 11.4%; in series [1] it was 70.3%. Moreover, the Cell viability with BMDM is listed as greater than 100%.
With `Cc1cccc(C)c1NC(=O)c1cc2c([nH]c3ccccc32)c(CCc2ncc[nH]2)n1`, the Cell viability in the series on BMDM is listed as greater than 100%. For the same compound, the Activity in series [1] was 28.6%.
As for `Cc1cccc(C)c1NC(=O)c1cc2c([nH]c3ccccc32)c(CCc2cccc(O)c2)n1`, in the series with BMDM, the Cell viability was greater than 100%. In addition, in [1], the Activity turned out to be 0%.
Take `Cc1cccc(C)c1NC(=O)c1cc2c([nH]c3ccccc32)c(CCc2ccncc2)n1`: the Activity in [2] was found to be 29.8%; in series [1] it was 79.1%. In the series on BMDM, the Cell viability is greater than 100%.
`Cc1cccc(C)c1NC(=O)c1cc2c([nH]c3ccccc32)c(CNc2ccccc2)n1`: in the series on BMDM, the Cell viability stood at 67.6%.
For the compound `Cc1cccc(C)c1NC(=O)c1cc2c([nH]c3ccccc32)c(CCc2nccs2)n1`, in the series with BMDM, the Cell viability was determined as 71%.
Consider `Cc1cccc(C)c1NC(=O)c1cc2c([nH]c3ccccc32)c(CCc2ccc(Cl)cc2)n1`, for which the Activity in series [2] is given as 11.3%; in series [1] it was 52.5%. In the series on BMDM, the Cell viability is on record as greater than 100%.
Consider `Cc1cccc(C)c1NC(=O)C(Cc1c[nH]c2ccccc12)NCCCc1ccccc1` (centres undefined), for which the half-life in series [3] is 1.2 h; in [4], 0.9 h. Moreover, the AUC(0-t) in series [5] amounted to 38.8 ng·h/mL; in series [7] it was 984 ng·h/mL. The compound further came in with a clearance in [6] of 51 mL/min/kg. The Cell viability in the series on BMDM is reported as greater than 100%. Also, the Activity in series [1] is listed as 32%. Moreover, in series [8], the Cmax amounted to 10 ng/mL. Also, in series [9], the bioavailability turned out to be 2.4%.
For the compound `Cc1cccc(C)c1NC(=O)c1cc2c([nH]c3ccccc32)c(CCc2ccccc2O)n1`, the Cell viability in the series on BMDM turned out to be 87.1%. Also, the Activity in [1] was determined as 36%.
Turning to `O=C(Nc1ccccn1)c1cc2c([nH]c3ccccc32)c(CCc2ccccc2)n1`, in the series with BMDM, the Cell viability was greater than 100%. Also, the Activity in [1] amounted to 36.1%.
For `O=C(NCc1ccccc1)c1cc2c([nH]c3ccccc32)c(CCc2ccccc2)n1`, the Cell viability in the series with BMDM is on record as greater than 100%. Besides, the Activity in [1] is 0%.
For `Cc1cccc(C)c1NC(=O)c1cc2c([nH]c3ccccc32)c(CCc2ccccc2F)n1`, the Activity is on record as 26.7% in [2] and 66.7% in series [1]. Moreover, in the series with BMDM, the Cell viability is greater than 100%.
Consider `Cc1cccc(C)c1NC(=O)c1cc2c([nH]c3ccccc32)c(CCc2ccc(C(=O)O)cc2)n1`, for which the Activity in series [2] is reported as 37.6%; in series [1], 85.9%. The Cell viability in the series with BMDM is reported as greater than 100%.
For the compound `O=C(NC1CC1)c1cc2c([nH]c3ccccc32)c(CCc2ccccc2)n1`, the Cell viability in the series on BMDM was greater than 100%. In series [1], the Activity worked out at 0%.
Consider `Cc1ccc(CCc2nc(C(=O)Nc3c(C)cccc3C)cc3c2[nH]c2ccccc23)cc1`, for which the Activity in [2] came out at 16.2%; in series [1] it was 77.6%. For the same compound, the Cell viability with BMDM is recorded as greater than 100%.
As for `Cc1cccc(C)c1NC(=O)c1cc2c([nH]c3ccccc32)c(CCc2ccc(C#N)cc2)n1`, the values for the Activity in series [2] and in series [1] were 16.5% and 79.5%, respectively. Besides, in the series on BMDM, the Cell viability is reported as greater than 100%.

Values taken from ChEMBL document CHEMBL5120967, “Development of an Orally Active Small-Molecule Inhibitor of Receptor Activator of Nuclear Factor-κB Ligand” (J Med Chem, 2022).
